{"source": "paper PMC10526274", "about": "“Epithelial-Immune Cell Crosstalk Determines the Activation of Immune Cells In Vitro by the Human Cathelicidin LL-37 at Low Physiological Concentrations” (Biomolecules, 2023)", "tested_on": "Caco-2 cells", "experiment": "Multiplex xMAP cytokine levels, Caco-2 epithelial barrier alone stimulated with LL-37", "assay_type": "cell-based, human", "conditions": "Caco-2 alone, 1 µM LL-37, 24 h, n=2", "description": "Caco-2 cell line (ATCC HTB-37) was cultured in a humidified CO2-incubator (5% CO2, 37 °C) in the complete DMEM/F12 (1:1) medium (Gibco, Waltham, MA, USA) containing 10% fetal bovine serum (FBS, Gibco) and 1X antibiotic–antimycotic solution (Gibco). To stabilize the cell phenotype, Caco-2 cells have been subcultivated three times before seeding on the filter supports. Then, Caco-2 cells were seeded at a density of 2 × 10^5 cells/cm^2 onto 24-well Millicell cell culture inserts (PC, 0.4-μm pore size, 0.6 cm^2 surface area, cat. #PIHP01250) (Millipore, Burlington, MA, USA), precoated with 0.2% bovine gelatin (Sigma-Aldrich, Saint Louis, MO, USA). After seeding, Caco-2 cells were grown in the same complete medium with re-feeding every 2–3 days until polarization of the monolayer occurred. The functional polarity of the monolayers was developed when transepithelial electrical resistance (TEER) between the apical and basolateral surfaces of the monolayers reached […] as measured by the electrical resistance system Millicell-ERS Voltohmmeter (Millipore, Burlington, MA, USA). Grown cell monolayers were used in transport and cytokine production experiments between the 21st and 29th days.\nPrimary blood monocytes, moDCs, and NKT cells were seeded in 600 µL of complete RPMI-1640 with 10% Human AB serum (Capricorn Scientific, Ebsdorfergrund, Germany) and supplemented with 1X antibiotic–antimycotic solution into the wells of 24-well plates at a density of 3–7 × 10^5 cells/well 24 h before the experiment. Then, 24 h later, the medium in each well was replaced by the same medium with 1 µM of LL-37 for the sample wells or fresh medium alone for the control wells, and the permeable inserts with the Caco-2 monolayer with TEER > 400 Ω × cm^2, containing 400 μL of the complete medium in their apical chamber, were immediately placed into the appropriate wells. Also, inserts with the Caco-2 monolayer were placed in cell-free wells of 24-well plates in the same complete RPMI-1640 medium with or without 1 µM of LL-37 as controls. Cells were kept in a CO2-incubator (5% CO2, 37 °C) for another 24 h. Then, culture medium from each well was collected, centrifuged, and frozen at −70 °C.\nTo quantitatively evaluate a broad spectrum of analytes secreted by human cell cultures at the protein level, multiplex xMAP technology was used. The chosen panel (cat. #HCYTA-60K-PX48, Merck, Darmstadt, Germany) included 48 different magnetic beads with primary antibodies to the following cytokines, chemokines, and growth factors: CCL11 (Eotaxin-1), Flt-3 ligand, CX3CL1 (Fractalkine), sCD40L, FGF-2, EGF, GROα, GM-CSF, G-CSF, IL-1RA, IL-1α, IL-1β, IL-2, IL-3, IL-4, IL-5, IL-6, IL-7, CXCL8 (IL-8), IL-9, IL-10, IL-12p40, IL-12p70, IL-13, IL-15, IL-17A (CTLA8), IL-17E (IL-25), IL-17F, IL-18, IL-22, IL-27, IFNγ, IFNα2, CXCL10 (IP-10), CCL2 (MCP-1), CCL7 (MCP-3), CCL22 (MDC), CXCL9 (MIG), CCL3 (MIP-1α), CCL4 (MIP-1β), CCL5 (RANTES), M-CSF, PDGF-AA, PDGF-AB/BB, TNFα, TNFβ, TGFα, and VEGF-A. The assay was performed in accordance with the manufacturer’s instructions with overnight incubation of the samples with primary antibodies, and the plate was read on a MAGPIX System (Merck) using the xPONENT 4.2 software (Merck). The acquired fluorescence data were analyzed by the MILLIPLEX Analyst v5.1 software (Merck), which realized an advanced curve-fitting algorithm. Levels of the analytes in control and experimental samples were compared with an unpaired two-sample t-test using GraphPad Prism v.8.0.1 (GraphPad Software, Inc., San Diego, CA, USA). The p-values ≤ 0.05 were considered significant.", "note": "Several values for one entry are separate records, joined by “and”; a condition that tells them apart may be missing. Equal values may be shown once."}
{"substance": "LL-37: the only human cathelicidin, host defense antimicrobial peptide of 37 a.a. residues, produced by solid-phase peptide synthesis", "values": [{"measurement": "MIP-1b level", "setting": "control 0.3", "result": 3.42, "unit": "pg/mL"}, {"measurement": "IL-18 level", "setting": "control 0.98", "result": 0.33, "unit": "pg/mL"}, {"measurement": "IL-9 level", "setting": "control 1.09", "result": 1.7, "unit": "pg/mL"}, {"measurement": "IL-6 level", "setting": "control 1.75", "result": 9.84, "unit": "pg/mL"}, {"measurement": "MIP-1a level", "setting": "control 2.06", "result": 5.65, "unit": "pg/mL"}, {"measurement": "EGF level", "setting": "control 2.26", "result": "<1.60↓ pg/ml"}, {"measurement": "IP-10 level", "setting": "control 4.18", "result": 2.9, "unit": "pg/mL"}, {"measurement": "IL-4 level", "setting": "control 4.8", "result": 6.56, "unit": "pg/mL"}, {"measurement": "MCP-3 level", "setting": "control 7.84", "result": 8.72, "unit": "pg/mL"}, {"measurement": "sCD40L level", "setting": "control 12.72", "result": 23.6, "unit": "pg/mL"}, {"measurement": "TNFb level", "setting": "control 12.91, p = 0.02", "result": "18.9 pg/mL and 18.87 pg/mL"}, {"measurement": "GROa level", "setting": "control 18.09", "result": 27.89, "unit": "pg/mL"}, {"measurement": "PDGF-AB/BB level", "setting": "control 22.83", "result": 29.35, "unit": "pg/mL"}, {"measurement": "IL-13 level", "setting": "control 25.51", "result": 32.02, "unit": "pg/mL"}, {"measurement": "FGF-2 level", "setting": "control 25.68", "result": 16.73, "unit": "pg/mL"}, {"measurement": "IL-22 level", "setting": "control 27.2, p = 0.013", "result": "39 pg/mL and 39.52 pg/mL"}, {"measurement": "IL-8 level", "setting": "control 28.45, p = 0.16", "result": "86 pg/mL and 86.32 pg/mL"}, {"measurement": "IL-27 level", "setting": "control 41.5", "result": 35.81, "unit": "pg/mL"}, {"measurement": "MCP-1 level", "setting": "control 55.94", "result": 100.47, "unit": "pg/mL"}, {"measurement": "PDGF-AA level", "setting": "control 164.04", "result": 149.4, "unit": "pg/mL"}, {"measurement": "VEGFa level", "setting": "control 960.31", "result": 2088, "unit": "pg/mL"}, {"measurement": "IL-7 level", "setting": "control <0.30", "result": "<0.30↓ pg/ml"}, {"measurement": "MDC level", "setting": "control <0.31", "result": "<0.31↓ pg/ml"}, {"measurement": "IL-5 level", "setting": "control <0.35", "result": "<0.35↓ pg/ml"}, {"measurement": "IL-2 level", "setting": "control <0.36", "result": "<0.36↓ pg/ml"}, {"measurement": "FLT-3L level", "setting": "control <0.51", "result": "<0.51↓ pg/ml"}, {"measurement": "IL-3 level", "setting": "control <0.55", "result": "<0.55↓ pg/ml"}, {"measurement": "RANTES level", "setting": "control <0.64", "result": "<0.64↓ pg/ml"}, {"measurement": "TGF-a level", "setting": "control <0.68", "result": "<0.68↓ pg/ml"}, {"measurement": "IL-17A level", "setting": "control <0.70", "result": "<0.70↓ pg/ml"}, {"measurement": "IFNg level", "setting": "control <0.73", "result": "<0.73↓ pg/ml"}, {"measurement": "IL-1b level", "setting": "control <0.74", "result": "<0.74↓ pg/ml"}, {"measurement": "GM-CSF level", "setting": "control <0.76", "result": "<0.76↓ pg/ml"}, {"measurement": "IL-1RA level", "setting": "control <0.93", "result": "<0.93↓ pg/ml"}, {"measurement": "IL-1a level", "setting": "control <1.30", "result": "<1.30↓ pg/ml"}, {"measurement": "IL-10 level", "setting": "control <1.35", "result": "<1.35↓ pg/ml"}, {"measurement": "IL-15 level", "setting": "control <1.54", "result": "<1.54↓ pg/ml"}, {"measurement": "IL-12 (p70) level", "setting": "control <1.71", "result": "<1.71↓ pg/ml"}, {"measurement": "G-CSF level", "setting": "control <2.32", "result": "<2.32↓ pg/ml"}, {"measurement": "Eotaxin level", "setting": "control <2.91", "result": "<2.91↓ pg/ml"}, {"measurement": "IL-12 (p40) level", "setting": "control <3.33", "result": "<3.33↓ pg/ml"}, {"measurement": "MIG level", "setting": "control <3.38", "result": "<3.38↓ pg/ml"}, {"measurement": "IFNa2 level", "setting": "control <3.88", "result": "<3.88↓ pg/ml"}, {"measurement": "TNFa level", "setting": "control <3.88", "result": "<3.88↓ pg/ml"}, {"measurement": "IL-17F level", "setting": "control <12.19", "result": "<12.19↓ pg/ml"}, {"measurement": "Fractalkine level", "setting": "control <18.09", "result": "<18.09↓ pg/ml"}, {"measurement": "IL-17E/IL-25 level", "setting": "control <19.43", "result": "<19.43↓ pg/ml"}, {"measurement": "M-GSF level", "setting": "control <24.21", "result": "<24.21↓ pg/ml"}]}
